Results on eight molecules are retold here after ChEMBL document CHEMBL1201862, “PubChem BioAssay data set” (2004).

Some test systems named below: SF-268; K562; MCF7; A498; OVCAR-8; NCI-H23; OVCAR-5; SW-620; SK-MEL-28; SNB-75; Hs-578T; SK-MEL-2; M14; BT-549; SF-539; UACC-257; LOX IMVI; 786-0; SF-295.
Common to all, as to test: growth of human tumour cells (NCI), 48 h

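Grown in 96-well plates, cells were treated for 48 hours with each compound at five concentrations. Insufficient inhibition: endpoint recorded as highest concentration tested. GI50: concentration for 50% inhibition of growth.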 Activity calls are given as the source filed them. Cut-off read from the data, not from the text of the source: active = GI50 up to about 1.1 µM and inactive = higher.

Regarding `[O-]/[N+](=N\c1ccccc1CO)c1ccccc1CO`, the GI50 with SF-268, with K562, with MCF7, in the experiment on A498, in the experiment on OVCAR-8 and with NCI-H23 was > 100 µM (inactive) throughout. Moreover, the GI50 in the experiment on OVCAR-5 is > 100 µM (inactive); in the experiment on SW-620, > 100 µM (inactive); in the experiment with SK-MEL-28 it was > 100 µM (inactive); in the experiment with SNB-75, 84.7 µM (inactive); in the experiment on Hs-578T, > 100 µM (inactive); with SK-MEL-2, > 100 µM (inactive). Also, the GI50 in the experiment on M14, with BT-549, with SF-539, in the experiment on UACC-257, in the experiment on LOX IMVI and in the experiment on 786-0 was > 100 µM (inactive) throughout.
Take `O=c1[nH]c(=O)n(C2OC(CO)C(O)C2O)c2ncc(-c3ccc(-c4ccccc4)cc3)nc12` (configuration not stated): the GI50 in the experiment on SF-268, in the experiment with K562, in the experiment on MCF7, with A498, in the experiment with OVCAR-8 and with NCI-H23 was > 20 µM (inactive) in each case. The GI50 with OVCAR-5, with SF-295, with SW-620, in the experiment on SNB-75, in the experiment with Hs-578T and in the experiment on SK-MEL-2 was > 20 µM (inactive) throughout. For the same molecule, the GI50 with BT-549, with SF-539, in the experiment with UACC-257, in the experiment on LOX IMVI and with 786-0 was > 20 µM (inactive) each time.
Take `Cc1cc(OC(=O)Nc2ccc(Cl)cc2)ccc1C(=S)Nc1ccccc1`: the GI50 in the experiment with SF-268 was 47.9 µM (inactive); in the experiment with K562 it was 6.49 µM (inactive); with MCF7 it was 34.9 µM (inactive); with A498, 96.6 µM (inactive); in the experiment on OVCAR-8, > 100 µM (inactive); in the experiment with OVCAR-5 it was 57 µM (inactive). In addition, the GI50 was 38.5 µM (inactive) in the experiment on SF-295; > 100 µM (inactive) in the experiment on SW-620; 71.1 µM (inactive) with SK-MEL-28; 49.9 µM (inactive) in the experiment on SNB-75; 91 µM (inactive) with Hs-578T; 66.2 µM (inactive) in the experiment with SK-MEL-2. Besides, the GI50 with M14 was 12.6 µM (inactive); in the experiment on BT-549, 91.8 µM (inactive); with SF-539 it was > 100 µM (inactive); with UACC-257, 23.2 µM (inactive); in the experiment with LOX IMVI it was 29.3 µM (inactive); with 786-0 it was 80 µM (inactive).
Consider `COc1cccc2c1C(=O)c1c(O)c3c(c(O)c1C2=O)C[C@H](O)C[C@@H]3OC1CC(N)C(O)C(C)O1` (some centres not stated), for which the GI50 with SF-268 was 1.57 µM (inactive); in the experiment with K562, 1.79 µM (inactive); in the experiment on MCF7 it was < 0.01 µM (active); in the experiment on A498 it was < 0.01 µM (active); with OVCAR-8, 1.05 µM (active); with NCI-H23, 1.06 µM (active). Besides, the GI50 in the experiment with OVCAR-5 was 1.97 µM (inactive); with SF-295, 1.44 µM (inactive); with SK-MEL-28, 1.7 µM (inactive); in the experiment on SNB-75 it was 1.87 µM (inactive); with Hs-578T, 0.802 µM (active); in the experiment on SK-MEL-2, 2.02 µM (inactive). Moreover, the GI50 is 3.04 µM (inactive) with BT-549; 1.33 µM (inactive) in the experiment on SF-539; 1.58 µM (inactive) in the experiment with UACC-257; 0.229 µM (active) in the experiment on LOX IMVI; 1.32 µM (inactive) in the experiment on 786-0.
With `CCc1n[nH]c(=O)n1CCCCCCCCCCCCn1c(CC)n[nH]c1=O`, the GI50 in the experiment with SF-268 is 29.7 µM (inactive); with K562, 17.9 µM (inactive); in the experiment with MCF7, 23.9 µM (inactive); with A498 it was 29.2 µM (inactive); in the experiment with OVCAR-8, 24.7 µM (inactive); in the experiment with NCI-H23 it was 20.2 µM (inactive). Also, the GI50 in the experiment on OVCAR-5 is 47.1 µM (inactive); in the experiment on SF-295, 25.1 µM (inactive); with SW-620, 37.2 µM (inactive); with SNB-75, 21 µM (inactive); with Hs-578T, 22 µM (inactive); in the experiment on SK-MEL-2, 52.8 µM (inactive). Further, the GI50 with M14 was 25.9 µM (inactive); with BT-549, 26.8 µM (inactive); in the experiment on SF-539, 48.4 µM (inactive); in the experiment on UACC-257, 11.7 µM (inactive); in the experiment on LOX IMVI it was 24.8 µM (inactive); in the experiment with 786-0 it was 35.5 µM (inactive).
For `Cc1ccc(S(=O)(=O)NCc2cccc([N+](=O)[O-])c2)cc1`, the GI50 in the experiment on SF-268, with MCF7, in the experiment on A498, in the experiment on OVCAR-8, in the experiment with NCI-H23 and in the experiment with OVCAR-5 was > 100 µM (inactive) each time. The GI50 with SF-295, with SW-620, with SK-MEL-28, in the experiment with SNB-75, in the experiment on Hs-578T and with SK-MEL-2 was > 100 µM (inactive) in each case. Moreover, the GI50 in the experiment on M14 is > 100 µM (inactive); in the experiment with BT-549, > 100 µM (inactive); in the experiment with SF-539, > 100 µM (inactive); in the experiment with UACC-257 it was 75.9 µM (inactive); in the experiment with LOX IMVI it was > 100 µM (inactive); in the experiment with 786-0, > 100 µM (inactive).
In the case of `O=C(OCC(OC(=O)c1ccccc1)C1CC(C(O)C2CCCCC2)C(=O)O1)c1ccccc1` (configuration not stated), the GI50 with SF-268 was 91.8 µM (inactive); in the experiment on K562, 21.4 µM (inactive); in the experiment on MCF7, 31.7 µM (inactive); in the experiment with A498 it was > 100 µM (inactive); with OVCAR-8, 49.3 µM (inactive); with NCI-H23, > 100 µM (inactive). The GI50 is > 100 µM (inactive) in the experiment with OVCAR-5; 86.7 µM (inactive) in the experiment on SF-295; 42.3 µM (inactive) in the experiment with SW-620; 51.4 µM (inactive) with SNB-75; > 100 µM (inactive) with Hs-578T; > 100 µM (inactive) in the experiment with SK-MEL-2. Besides, the GI50 is 63.7 µM (inactive) in the experiment with M14; 53 µM (inactive) in the experiment on BT-549; 25.1 µM (inactive) in the experiment with SF-539; > 100 µM (inactive) in the experiment on UACC-257; 37.4 µM (inactive) in the experiment with LOX IMVI; > 100 µM (inactive) with 786-0.
As for `Nc1cccnc1NCC1(CO)CCCC1`, the GI50 with SF-268, in the experiment with K562, with MCF7, in the experiment on A498, with OVCAR-8 and in the experiment on NCI-H23 was > 100 µM (inactive) in each case. Also, the GI50 with OVCAR-5, in the experiment on SF-295, with SW-620, with SK-MEL-28, in the experiment on SNB-75 and in the experiment with Hs-578T was > 100 µM (inactive) each time. Further, the GI50 with SK-MEL-2, in the experiment with BT-549, in the experiment on SF-539, with UACC-257, with LOX IMVI and with 786-0 was > 100 µM (inactive) throughout.
